Columns and labels:
[1] = Peak depolarizations produced by injections of 100 micro M Ins p3 isomers in six cells; assay type: cell-based
[2] = Peak depolarizations produced by injections of 100 micro M Ins p3 isomers in nine cells; assay type: cell-based

Depolarisation [1] [mV] | Depolarisation [2] [mV] | SMILES
32.5 | – | O=P(O)(O)OC1C(O)C(O)C(OP(=O)(O)O)C(OP(=O)(O)O)C1O (stereo in doubt; form 2) [INOSITOL (1,4,5) (PHOSPHATE)3]
3.4 | 5.7 | O=P(O)(O)OC1C(O)C(O)C(OP(=O)(O)O)C(OP(=O)(O)O)C1O (stereo in doubt; form 3) [INOSITOL (1,4,5) (PHOSPHATE)3]
– | 24 | O=P(O)(O)OC1C(O)C(O)C(OP(=O)(O)O)C(OP(=O)(O)O)C1O (stereo in doubt; form 1) [INOSITOL (1,4,5) (PHOSPHATE)3]

Reference: ChEMBL document CHEMBL1127407, “Unambiguous total synthesis of the enantiomers of myo-inositol 1,3,4-trisphosphate: 1L-myo-inositol 1,3,4-trisphosphate mobilizes intracellular Ca2+ in Limulus photoreceptors” (J Med Chem, 1994)
